Patent US10323022B2, “Pyrrolidinyl urea, pyrrolidinyl thiourea and pyrrolidinyl guanidine compounds as TrkA kinase inhibitors” (Array BioPharma Inc., priority 2011, dated 2019)

The molecules below were run against TrkA (Homo sapiens (Human), UniProt P04629) (assay: TrkA Omnia Assay). Settings: averaged IC50; 20 nM enzyme, 500 μM ATP, 10 μM peptide substrate.
Format: biochemical
Method in brief: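 Continuous fluorescent kinase read-out (ex 360 nm, em 485 nm) over 70 min, with initial rates fitted to 4- or 5-parameter logistic curves for IC50. Final conditions: 500 μM ATP, 10 μM Omnia Tyr Peptide #4, 20 nM TrkA, MOPS pH 7.5 buffer with MgCl2 and Triton X-100; enzyme and compound preincubated 10 min at ambient temperature.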

Sequence of TrkA (P04629 33-796): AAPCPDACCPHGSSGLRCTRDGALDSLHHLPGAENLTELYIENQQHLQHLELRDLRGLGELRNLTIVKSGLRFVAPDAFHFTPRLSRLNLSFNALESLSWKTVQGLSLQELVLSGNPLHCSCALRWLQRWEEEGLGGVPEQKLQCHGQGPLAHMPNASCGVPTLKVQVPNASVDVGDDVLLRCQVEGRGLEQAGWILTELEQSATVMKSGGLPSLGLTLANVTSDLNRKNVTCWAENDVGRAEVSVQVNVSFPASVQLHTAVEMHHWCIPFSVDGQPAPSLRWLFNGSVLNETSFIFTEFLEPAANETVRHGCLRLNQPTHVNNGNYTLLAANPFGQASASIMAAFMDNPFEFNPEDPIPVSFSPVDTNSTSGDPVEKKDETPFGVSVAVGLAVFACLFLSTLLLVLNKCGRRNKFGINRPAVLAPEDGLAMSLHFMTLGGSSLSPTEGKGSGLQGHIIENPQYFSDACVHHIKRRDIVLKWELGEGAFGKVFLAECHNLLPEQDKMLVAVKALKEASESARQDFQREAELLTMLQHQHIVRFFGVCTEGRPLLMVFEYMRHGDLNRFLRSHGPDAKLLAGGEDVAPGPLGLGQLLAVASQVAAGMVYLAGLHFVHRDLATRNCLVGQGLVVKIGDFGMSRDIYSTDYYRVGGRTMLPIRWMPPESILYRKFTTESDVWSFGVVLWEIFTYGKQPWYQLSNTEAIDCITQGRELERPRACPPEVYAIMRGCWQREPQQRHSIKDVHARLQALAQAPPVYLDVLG

| Compound | IC50 [µM] |
| --- | --- |
| COCCN1C[C@@H](NC(=O)Nc2c(C)c(-c3cn(C)nc3C)nn2-c2ccccc2)[C@H](c2ccc(F)c(F)c2)C1 [Example 508, 1-((3S,4R)-4-(3,4-difluorophenyl)-1-(2-methoxyethyl)pyrrolidin-3-yl)-3-(1′,3′,4-trimethyl-1-phenyl-1H,1′H-[3,4′-bipyrazol]-5-yl)urea] | < 0.1 |
| COCCN1C[C@@H](NC(=O)Nc2c(C)c(-c3cnn(C4CC4)c3)nn2-c2ccccc2)[C@H](c2ccc(F)c(F)c2)C1 [Example 509, 1-(1′-cyclopropyl-4-methyl-1-phenyl-1H,1′H-[3,4′-bipyrazol]-5-yl)-3-((3S,4R)-4-(3,4-difluorophenyl)-1-(2-methoxyethyl)pyrrolidin-3-yl)urea] | < 0.1 |
| COCCN1C[C@@H](NC(=O)Nc2c(C)c(-c3cnc(C)s3)nn2-c2ccccc2)[C@H](c2ccc(F)c(F)c2)C1 [Example 510, 1-((3S,4R)-4-(3,4-difluorophenyl)-1-(2-methoxyethyl)pyrrolidin-3-yl)-3-(4-methyl-3-(2-methylthiazol-5-yl)-1-phenyl-1H-pyrazol-5-yl)urea] | < 0.1 |
| COCCN1C[C@@H](NC(=O)Nc2c(C)c(-c3ccc(N)nc3)nn2-c2ccccc2)[C@H](c2ccc(F)c(F)c2)C1 [Example 515, 1-(3-(6-aminopyridin-3-yl)-4-methyl-1-phenyl-1H-pyrazol-5-yl)-3-((3S,4R)-4-(3,4-difluorophenyl)-1-(2-methoxyethyl)pyrrolidin-3-yl)urea] | < 0.1 |
| COCCN1C[C@@H](NC(=O)Nc2c(C)c(-c3cnn(C(C)C)c3)nn2-c2ccccc2)[C@H](c2ccc(F)cc2)C1 [Example 518, 1-((3S,4R)-4-(4-fluorophenyl)-1-(2-methoxyethyl)pyrrolidin-3-yl)-3-(1′-isopropyl-4-methyl-1-phenyl-1H, 1′H-[3,4′-bipyrazol]-5-yl)urea] | < 0.1 |
| Cc1c(Br)nn(-c2ccccc2)c1NC(=O)N[C@H]1CN(CC(F)(F)F)C[C@@H]1c1ccccc1 [Example 520, 1-(3-bromo-4-methyl-1-phenyl-1H-pyrazol-5-yl)-3-((3R,4S)-4-phenyl-1-(2,2,2-trifluoroethyl)pyrrolidin-3-yl)urea] | < 0.1 |
| Cc1c(-c2cnc(N)nc2)nn(-c2ccccc2)c1NC(=O)N[C@H]1CN(CC(F)(F)F)C[C@@H]1c1ccccc1 [Example 522, 1-(3-(2-aminopyrimidin-5-yl)-4-methyl-1-phenyl-1H-pyrazol-5-yl)-3-((3R,4S)-4-phenyl-1-(2,2,2-trifluoroethyl)pyrrolidin-3-yl)urea bis(2,2,2-trifluoroacetate)] | < 0.1 |
| CCn1cc(-c2nn(-c3ccccc3)c(NC(=O)N[C@@H]3CN(CCOC)C[C@H]3c3ccc(F)c(F)c3)c2C)cn1 [Example 523, 1-((3S,4R)-4-(3,4-difluorophenyl)-1-(2-methoxyethyl)pyrrolidin-3-yl)-3-(1′-ethyl-4-methyl-1-phenyl-1H, 1′H-[3,4′-bipyrazol]-5-yl)urea] | < 0.1 |
| COCCN1C[C@@H](NC(=O)Nc2c(C)c(OS(=O)(=O)C(F)(F)F)nn2-c2ccccc2)[C@H](c2ccc(F)c(F)c2)C1 [Example 525, 5-(3-((3S,4R)-4-(3,4-difluorophenyl)-1-(2-methoxyethyl)pyrrolidin-3-yl)ureido)-4-methyl-1-phenyl-1H-pyrazol-3-yl trifluoromethanesulfonate] | < 0.1 |
| COCCN1C[C@@H](NC(=O)Nc2c(C)c(-c3cnc(OC)nc3)nn2-c2ccccc2)[C@H](c2ccc(F)c(F)c2)C1 [Example 526, 1-((3S,4R)-4-(3,4-difluorophenyvl)-1-(2-methoxyethyl)pyrrolidin-3-yl)-3-(3-(2-methoxypyrimidin-5-yl)-4-methyl-1-phenyl-1H-pyrazol-5-yl)urea] | < 0.1 |
| COCCN1C[C@@H](NC(=O)Nc2c(C)c(-c3cnc(N(C)C)nc3)nn2-c2ccccc2)[C@H](c2ccc(F)c(F)c2)C1 [Example 527, 1-((3S,4R)-4-(3,4-difluorophenyl)-1-(2-methoxyethyl)pyrrolidin-3-yl)-3-(3-(2-(dimethylamino)pyrimidin-5-yl)-4-methyl-l-phenyl-1H-pyrazol-5-yl)urea] | < 0.1 |
| COCCN1C[C@@H](NC(=O)Nc2c(C)c(C3CC3)nn2-c2ccccc2)[C@H](c2ccc(F)c(F)c2)C1 [Example 533, 1-(3-cyclopropyl-4-methyl-1-phenyl-1H-pyrazol-5-yl)-3-((3S,4R)-4-(3,4-difluorophenyl)-1-(2-methoxyethyl)pyrrolidin-3-yl)urea] | < 0.1 |

Results, then the molecule that gave them:

| IC50 [µM] | Compound |
| --- | --- |
| < 0.1 | COCCN1C[C@@H](NC(=O)Nc2c(C)c(-c3cnc(C)nc3)nn2-c2ccccc2)[C@H](c2ccc(F)c(F)c2)C1 [Example 511, 1-((3S,4R)-4-(3,4-difluorophenyl)-1-(2-methoxyethyl)pyrrolidin-3-yl)-3-(4-methyl-3-(2-methylpyrimidin-5-yl)-1-phenyl-1H-pyrazol-5-yl)urea] |
| < 0.1 | COCCN1C[C@@H](NC(=O)Nc2c(C)c(-c3cnc(N)nc3)nn2-c2ccccc2)[C@H](c2ccc(F)c(F)c2)C1 [Example 512, 1-(3-(2-aminopyrimidin-5-yl)-4-methyl-1-phenyl-1H-pyrazol-5-yl)-3-((3S,4R)-4-(3,4-difluorophenyl)-1-(2-methoxyethyl)pyrrolidin-3-yl)urea] |
| < 0.1 | COCCN1C[C@@H](NC(=O)Nc2c(C)c(-c3sc(C)nc3C)nn2-c2ccccc2)[C@H](c2ccc(F)c(F)c2)C1 [Example 513, 1-((3S,4R)-4-(3,4-difluorophenyl)-1-(2-methoxyethyl)pyrrolidin-3-yl)-3-(3-(2,4-dimethylthiazol-5-yl)-4-methyl-1-phenyl-1H-pyrazol-5-yl)urea] |
| < 0.1 | COCCN1C[C@@H](NC(=O)Nc2c(C)c(-c3cc(C)nc(C)c3)nn2-c2ccccc2)[C@H](c2ccc(F)c(F)c2)C1 [Example 514, 1-((3S,4R)-4-(3,4-difluorophenyl)-1-(2-methoxyethyl)pyrrolidin-3-yl)-3-(3-(2,6-dimethylpyridin-4-yl)-4-methyl-1-phenyl-1H-pyrazol-5-yl)urea] |
| < 0.1 | COCCN1C[C@@H](NC(=O)Nc2c(C)c(Br)nn2-c2ccccc2)[C@H](c2ccc(F)cc2)C1 [Example 516, 1-(3-bromo-4-methyl-1-phenyl-1H-pyrazol-5-yl)-3-((3S,4R)-4-(4-fluorophenyl)-1-(2-methoxyethyl)pyrrolidin-3-yl)urea] |
| < 0.1 | COCCN1C[C@@H](NC(=O)Nc2c(C)c(-c3ccc(=O)n(CC(F)(F)F)c3)nn2-c2ccccc2)[C@H](c2ccc(F)c(F)c2)C1 [Example 517, 1-((3S,4R)-4-(3,4-difluorophenyl)-1-(2-methoxyethyl)pyrrolidin-3-yl)-3-(4-methyl-3-(6-oxo-1-(2,2,2-trifluoroethyl)-1,6-dihydropyridin-3-yl)-1-phenyl-1H-pyrazol-5-yl)urea] |
| < 0.1 | COCCN1C[C@@H](NC(=O)Nc2c(C)c(-c3ccc(=O)n(C)c3)nn2-c2ccccc2)[C@H](c2ccc(F)cc2)C1 [Example 519, 1-((3S,4R)-4-(4-fluorophenyl)-1-(2-methoxyethyl)pyrrolidin-3-yl)-3-(4-methyl-3-(1-methyl-6-oxo-1,6-dihydropyridin-3-yl)-1-phenyl-1H-pyrazol-5-yl)urea] |
| < 0.1 | CCn1cc(-c2nn(-c3ccccc3)c(NC(=O)N[C@@H]3CN(CCOC)C[C@H]3c3ccc(F)cc3)c2C)cn1 [Example 524, 1-(1′-ethyl-4-methyl-1-phenyl-1H, 1′H-[3,4′-bipyrazol]-5-yl)-3-((3S,4R)-4-(4-fluorophenyl)-1-(2-methoxyethyl)pyrrolidin-3-yl)urea] |
| < 0.1 | COCCN1C[C@@H](NC(=O)Nc2c(C)c(-c3cnc(OC)nc3)nn2-c2ccccc2)[C@H](c2ccc(F)cc2)C1 [Example 528, 1-((3S,4R)-4-(4-fluorophenyl)-1-(2-methoxyethyl)pyrrolidin-3-yl)-3-(3-(2-methoxypyrimidin-5-yl)-4-methyl-1-phenyl-1H-pyrazol-5-yl)urea] |
| < 0.1 | COCCN1C[C@@H](NC(=O)Nc2c(C)c(-c3cnc(N(C)C)nc3)nn2-c2ccccc2)[C@H](c2ccc(F)cc2)C1 [Example 529, 1-(3-(2-(dimethylamino)pyrimidin-5-yl)-4-methyl-1-phenyl-1H-pyrazol-5-yl)-3-((3S,4R)-4-(4-fluorophenyl)-1-(2-methoxyethyl)pyrrolidin-3-yl)urea] |
| < 0.1 | CCn1cc(-c2nn(-c3ccccc3)c(NC(=O)N[C@@H]3CN(CCOC)C[C@H]3c3cccc(F)c3)c2C)cn1 [Example 530, 1-(1′-ethyl-4-methyl-1-phenyl-1H,1′H-[3,4′-bipyrazol]-5-yl)-3-((3S,4R)-4-(3-fluorophenyl)-1-(2-methoxyethyl)pyrrolidin-3-yl)urea] |
| < 0.1 | COCCN1C[C@@H](NC(=O)Nc2c(C)c(-c3ccn(C)c(=O)c3)nn2-c2ccccc2)[C@H](c2cccc(F)c2)C1 [Example 531, 1-((3S,4R)-4-(3-fluorophenyl)-1-(2-methoxyethyl)pyrrolidin-3-yl)-3-(4-methyl-3-(1-methyl-2-oxo-1,2-dihydropyridin-4-yl)-1-phenyl-1H-pyrazol-5-yl)urea] |
| < 0.1 | COCCN1C[C@@H](NC(=O)Nc2c(C)c(-c3ccn(C)c(=O)c3)nn2-c2ccccc2)[C@H](c2ccc(F)cc2)C1 [Example 532, 1-((3S,4R)-4-(4-fluorophenyl)-1-(2-methoxyethyl)pyrrolidin-3-yl)-3-(4-methyl-3-(1-methyl-2-oxo-1,2-dihydropyridin-4-yl)-1-phenyl-1H-pyrazol-5-yl)urea] |
| < 0.1 | COCCN1C[C@@H](NC(=O)Nc2c(C)c(C3CC3)nn2-c2ccccc2)[C@H](c2ccc(F)cc2)C1 [Example 534, 1-(3-cyclopropyl-4-methyl-1-phenyl-1H-pyrazol-5-yl)-3-((3S,4R)-4-(4-fluorophenyl)-1-(2-methoxyethyl)pyrrolidin-3-yl)urea] |
